Experimental data as given in patent US9949970B2, “Synthesis of new benzothiazole derivatives as potential anti-tubercular agents” (priority 2010, dated 2018).
Values after ≈ are worked out from the molar mass of the structure shown. Read-outs that look alike come from different tables or passages of the source.

Legend:
M. tuberculosis H37Rv [1] = settings: closest benzothiazole compounds; cited from earlier work
M. tuberculosis H37Rv [2] = assay: Antimycobacterial activity: MIC by broth microdilution / Nitrate Reductase Assay; type: cell-based, Mycobacterium tuberculosis; settings: lowest concentration showing no colour change (NRA)
AML-12 cell lines = assay: Cytotoxicity MTT assay on AML-12 cell lines; type: cell-based; settings: for Cytotoxicity: AML-12 cell line, MTT, 24 hrs, test material 2-100 μg/ml; for Cytotoxicity (result in words): AML-12 cell lines, MTT assay
Experimental: The potent compounds 3j, 4e, 6a, 6f, 6g, 6i, and 6p were evaluated for cytotoxic effect on AML-12 cell lines using MTT assay, in a 96 well plate format. Cells were incubated in Dulbecco's Modified Eagle's Medium (DMEM) containing 10% fetal calf serum (FCS) with the test material (2-100 μg/ml) for 24 hrs. at 37° C. in CO2 incubator. After the completion of incubation 3-(4,5-dimethylthiazol-2-yl)-2,5-diphenyltetrazolium bromide (MTT) was added and cells were further incubated for 3 h at 37° C. in CO2 incubator. Formation of formazan salt by mitochondrial dehydrogenases, and was determined by Elisa reader at 565 nm (Multiskan Spectrum; Thermo Electron Corporation, USA). The percentage cytotoxicity was calculated with respect to the untreated cells.

M. tuberculosis (H37Rv) = assay: In vivo efficacy in lungs of infected mice; parameters: species or system Swiss albino mice; settings: for In vivo activity (result in words) / Decrease of bacterial load in lung with late control (protections): mice; for In vivo activity (result in words): lung; for Decrease of bacterial load in lung with late control (protections): versus late control; for Log10 CFU/left Lung: infected female Swiss albino mice
[3] = Mycobacterium tuberculosis, H37RV, read-out: MIC
[4] = Mycobacterium tuberculosis, H37RV

Molecule: COC(=O)[C@H](NC(=O)c1cc(COc2ccc3nc(C)sc3c2)on1)c1ccccc1
- MIC (M. tuberculosis H37Rv [1]): 1.9 µg/mL (≈ 4.34 µM)

Molecule: COC(=O)C(NC(=O)c1cc(COc2ccc3nc(C)sc3c2)on1)c1ccccc1 (stereo not shown)
- MIC (M. tuberculosis H37Rv [1]): 1.4 µg/mL (≈ 3.2 µM)

Molecule: CC(=NNC1CSC(c2ccc3c(c2)CCC3)=N1)c1ccc(C)cc1 (stereo not shown)
- MIC (M. tuberculosis H37Rv [1]): >6.5 µg/mL

Molecule: O=[N+]([O-])c1ccc(C=NNc2nc3ccccc3s2)o1 [Compound 3a, 5-nitro-2-furaldehyde 2-(1,3-benzothiazole-2-yl)hydrazone]
- MIC (M. tuberculosis H37Rv [2]; [3]): > 16 µg/mL

Molecule: O=[N+]([O-])c1ccc(C=NNc2nc3ccccc3s2)s1 [Compound 3b, 5-nitro-2-thiophenecarbaldehyde 2-(1,3-benzothiazole-2-yl)hydrazone]
- MIC (M. tuberculosis H37Rv [2]; [3]): > 16 µg/mL

Molecule: Cc1ccc2nc(NN=Cc3ccc([N+](=O)[O-])o3)sc2c1 [Compound 3c, 5-nitro-2-furaldehyde 2-(6-methyl-1,3-benzothiazole-2-yl)hydrazone]
- MIC (M. tuberculosis H37Rv [2]; [3]): > 16 µg/mL

Molecule: Cc1ccc2nc(NN=Cc3ccc([N+](=O)[O-])s3)sc2c1 [Compound 3d, 5-nitro-2-thiophenecarbaldehyde 2-(6-methyl-1,3-benzothiazole-2-yl)hydrazone]
- MIC (M. tuberculosis H37Rv [2]; [3]): > 16 µg/mL

Molecule: COc1ccc2nc(NN=Cc3ccc([N+](=O)[O-])o3)sc2c1 [Compound 3e, 5-nitro-2-furaldehyde 2-(6-methoxy-1,3-benzothiazole-2-yl)hydrazone]
- MIC (M. tuberculosis H37Rv [2]; [3]): > 16 µg/mL

Molecule: COc1ccc2nc(NN=Cc3ccc([N+](=O)[O-])s3)sc2c1 [Compound 3f, 5-nitro-2-thiophenecarbaldehyde 2-(6-methoxy-1,3-benzothiazole-2-yl)hydrazone]
- MIC (M. tuberculosis H37Rv [2]; [3]): > 16 µg/mL

Molecule: O=[N+]([O-])c1ccc(C=NNc2nc3ccc(C(F)(F)F)cc3s2)o1 [Compound 3g, 5-nitro-2-furaldehyde 2-(6-trifluoromethyl-1,3-benzothiazole-2-yl)hydrazone]
- MIC (M. tuberculosis H37Rv [2]; [3]): > 16 µg/mL

Molecule: O=[N+]([O-])c1ccc(C=NNc2nc3ccc(C(F)(F)F)cc3s2)s1 [Compound 3h, 5-nitro-2-thiophenecarbaldehyde 2-(6-trifluoromethyl-1,3-benzothiazole-2-yl)hydrazone]
- MIC (M. tuberculosis H37Rv [2]; [3]): > 16 µg/mL

Molecule: O=[N+]([O-])c1ccc(C=NNc2nc3ccc(OC(F)(F)F)cc3s2)o1 [Compound 3i, 5-nitro-2-furaldehyde 2-(6-trifluoromethoxy-1,3-benzothiazole-2-yl)hydrazone]
- MIC (M. tuberculosis H37Rv [2]; [3]): > 16 µg/mL

Molecule: O=[N+]([O-])c1ccc(C=NNc2nc3ccc(OC(F)(F)F)cc3s2)s1 [Compound 3j, 5-nitro-2-thiophenecarbaldehyde 2-(6-trifluoromethoxy-1,3-benzothiazole-2-yl)hydrazone]
- MIC (M. tuberculosis H37Rv [2]; [3]): 0.5 to 8 µg/mL (≈ 1.29 to 20.6 µM)
- MIC (M. tuberculosis H37Rv [2]): 1 µg/mL (≈ 2.57 µM)
- Cytotoxicity (AML-12 cell lines): >100 µg/mL
- Cytotoxicity (result in words) (AML-12 cell lines): no cytotoxicity

Molecule: O=[N+]([O-])c1ccc(C=NNc2nc3ccc(F)cc3s2)o1 [Compound 3k, 5-nitro-2-furaldehyde 2-(6-fluoro-1,3-benzothiazole-2-yl)hydrazone]
- MIC (M. tuberculosis H37Rv [2]; [3]): > 16 µg/mL

Molecule: O=[N+]([O-])c1ccc(C=NNc2nc3ccc(F)cc3s2)s1 [Compound 3l, 5-nitro-2-thiophenecarbaldehyde 2-(6-fluoro-1,3-benzothiazole-2-yl)hydrazone]
- MIC (M. tuberculosis H37Rv [2]; [3]): > 16 µg/mL

Molecule: O=[N+]([O-])c1ccc(C=NNc2nc3ccc(Cl)cc3s2)o1 [Compound 3m, 5-nitro-2-furaldehyde 2-(6-chloro-1,3-benzothiazole-2-yl)hydrazone]
- MIC (M. tuberculosis H37Rv [2]; [3]): 16 µg/mL (≈ 49.6 µM)

Molecule: O=[N+]([O-])c1ccc(C=NNc2nc3ccc(Cl)cc3s2)s1 [Compound 3n, 5-nitro-2-thiophenecarbaldehyde 2-(6-chloro-1,3-benzothiazole-2-yl)hydrazone]
- MIC (M. tuberculosis H37Rv [2]; [3]): > 16 µg/mL

Molecule: O=[N+]([O-])c1ccc2nc(NN=Cc3ccc([N+](=O)[O-])o3)sc2c1 [Compound 3o, 5-nitro-2-furaldehyde 2-(6-nitro-1,3-benzothiazole-2-yl)hydrazone]
- MIC (M. tuberculosis H37Rv [2]; [4]): 16 µg/mL (≈ 48 µM)

Molecule: O=[N+]([O-])c1ccc2nc(NN=Cc3ccc([N+](=O)[O-])s3)sc2c1 [Compound 3p, 5-nitro-2-thiophenecarbaldehyde 2-(6-nitro-1,3-benzothiazole-2-yl)hydrazone]
- MIC (M. tuberculosis H37Rv [2]; [4]): > 16 µg/mL

Molecule: O=C(NNc1nc2ccccc2s1)c1ccc([N+](=O)[O-])o1 [Compound 4a, N′2-(1,3-benzothiazol-2-yl)-5-nitro-2-furancarbohydrazide]
- MIC (M. tuberculosis H37Rv [2]; [3]): > 16 µg/mL

Molecule: Cc1ccc2nc(NNC(=O)c3ccc([N+](=O)[O-])o3)sc2c1 [Compound 4b, N′2-(6-methyl-1,3-benzothiazol-2yl)-5-nitro-2-furancarbohydrazide]
- MIC (M. tuberculosis H37Rv [2]; [3]): > 16 µg/mL

Molecule: COc1ccc2nc(NNC(=O)c3ccc([N+](=O)[O-])o3)sc2c1 [Compound 4c, N′2-(6-methoxy-1,3-benzothiazol-2-yl)-5-nitro-2-furancarbohydrazide]
- MIC (M. tuberculosis H37Rv [2]; [3]): > 16 µg/mL

Molecule: O=C(NNc1nc2ccc(C(F)(F)F)cc2s1)c1ccc([N+](=O)[O-])o1 [Compound 4d, N′2-(6-trifluoromethyl-1,3-benzothiazol-2-yl)-5-nitro-2-furancarbohydrazide]
- MIC (M. tuberculosis H37Rv [2]; [3]): > 16 µg/mL

Molecule: O=C(NNc1nc2ccc(OC(F)(F)F)cc2s1)c1ccc([N+](=O)[O-])o1 [Compound 4e, N′2-(6-trifluoromethoxy-1,3-benzothiazol-2-yl)-5-nitro-2-furanecarbohydrazide]
- Cytotoxicity (AML-12 cell lines): >100 µg/mL
- Cytotoxicity (result in words) (AML-12 cell lines): no cytotoxicity

Molecule: O=C(NNc1nc2ccc(F)cc2s1)c1ccc([N+](=O)[O-])o1 [Compound 4f, N′2-(6-fluoro-1,3-benzothiazol-2-yl)-5-nitro-2-furanecarbohydrazide]
- MIC (M. tuberculosis H37Rv [2]; [3]): > 16 µg/mL

Molecule: O=C(NNc1nc2ccc(Cl)cc2s1)c1ccc([N+](=O)[O-])o1 [Compound 4g, N′2-(6-chloro-1,3-benzothiazol-2-yl)-5-nitro-2-furanecarbohydrazide]
- MIC (M. tuberculosis H37Rv [2]; [3]): > 16 µg/mL

Molecule: O=C(NNc1nc2ccc([N+](=O)[O-])cc2s1)c1ccc([N+](=O)[O-])o1 [Compound 4h, N′2-(6-nitro-1,3-benzothiazol-2-yl)-5-nitro-2-furanecarbohydrazide]
- MIC (M. tuberculosis H37Rv [2]; [4]): 16 µg/mL (≈ 45.8 µM)

Molecule: O=C(Nc1nc2ccc(NC(=O)c3ccc([N+](=O)[O-])o3)cc2s1)c1ccccc1 [Compound 6a, N2-[2-(benzoylamino)-1,3-benzothiazol-6-yl]-5-nitrofuramide]
- MIC (M. tuberculosis H37Rv [2]; [3]): 0.5 to 8 µg/mL (≈ 1.22 to 19.6 µM)
- MIC (M. tuberculosis H37Rv [2]): 1 µg/mL (≈ 2.45 µM)
- Cytotoxicity (AML-12 cell lines): >100 µg/mL
- Cytotoxicity (result in words) (AML-12 cell lines): no cytotoxicity

Molecule: O=C(Nc1nc2ccc(NC(=O)c3ccc([N+](=O)[O-])o3)cc2s1)c1ccc(F)cc1 [Compound 6f, N2-{2-[(4-fluorobenzoyl)amino]-1,3-benzothiazol-6-yl}-5-nitrofuramide]
- MIC (M. tuberculosis H37Rv [2]): 0.5 µg/mL (≈ 1.17 µM)
- Cytotoxicity (AML-12 cell lines): >100 µg/mL
- Cytotoxicity (result in words) (AML-12 cell lines): no cytotoxicity
- In vivo activity (result in words) (M. tuberculosis (H37Rv); 25 mg/kg): bacteriostatic activities
- Decrease of bacterial load in lung with late control (protections) (M. tuberculosis (H37Rv); 25 mg/kg): 1.0
- Log10 CFU/left Lung (M. tuberculosis (H37Rv); 25 mg/kg): 6.0 ± 0.13

Molecule: O=C(Nc1nc2ccc(NC(=O)c3ccc([N+](=O)[O-])o3)cc2s1)c1ccc(Cl)cc1 [Compound 6g, N2-{2-[(4-chlorobenzoyl)amino]-1,3-benzothiazol-6-yl}-5-nitrofuramide]
- MIC (M. tuberculosis H37Rv [2]): 0.5 µg/mL (≈ 1.13 µM)
- Cytotoxicity (AML-12 cell lines): >100 µg/mL
- Cytotoxicity (result in words) (AML-12 cell lines): no cytotoxicity
- In vivo activity (result in words) (M. tuberculosis (H37Rv); 25 mg/kg): bacteriostatic activities
- Decrease of bacterial load in lung with late control (protections) (M. tuberculosis (H37Rv); 25 mg/kg): 1.0
- Log10 CFU/left Lung (M. tuberculosis (H37Rv); 25 mg/kg): 6.1 ± 0.48

Molecule: O=C(Nc1ccc2nc(NC(=O)c3ccc(F)cc3F)sc2c1)c1ccc([N+](=O)[O-])o1 [Compound 6i, N2-{2-[(2,4-difluorobenzoyl)amino]-1,3-benzothiazol-6-yl}-5-nitrofuramide]
- MIC (M. tuberculosis H37Rv [2]): 0.5 µg/mL (≈ 1.13 µM)
- Cytotoxicity (AML-12 cell lines): >100 µg/mL
- Cytotoxicity (result in words) (AML-12 cell lines): no cytotoxicity
- In vivo activity (result in words) (M. tuberculosis (H37Rv); 25 mg/kg): bacteriostatic activities
- Decrease of bacterial load in lung with late control (protections) (M. tuberculosis (H37Rv); 25 mg/kg): 1.0
- Log10 CFU/left Lung (M. tuberculosis (H37Rv); 25 mg/kg): 6.3 ± 0.37

Molecule: O=C(Nc1nc2ccc(NC(=O)c3ccc([N+](=O)[O-])o3)cc2s1)c1cnccn1 [Compound 6p, N2-(6-{[(5-nitro-2-furyl)carbonyl]amino}-1,3-benzothiazol-2-yl)-2-pyrazinecarboxamide]
- MIC (M. tuberculosis H37Rv [2]): 1 µg/mL (≈ 2.44 µM)
- Cytotoxicity (AML-12 cell lines): >100 µg/mL
- Cytotoxicity (result in words) (AML-12 cell lines): no cytotoxicity

Molecule: NNC(=O)c1ccncc1 [INH, Isoniazid, reference compound]
- MIC (M. tuberculosis H37Rv [2]; [3]): 0.5 µg/mL (≈ 3.65 µM)

Molecule: CO[C@H]1/C=C/O[C@@]2(C)Oc3c(C)c(O)c4c(O)c(c(/C=N/N5CCN(C)CC5)c(O)c4c3C2=O)NC(=O)/C(C)=C\C=C\[C@H](C)[C@H](O)[C@@H](C)[C@@H](O)[C@@H](C)[C@H](OC(C)=O)[C@@H]1C [RMP, Rifampicin, reference compound]
- MIC (M. tuberculosis H37Rv [2]; [3]): 0.25 µg/mL (≈ 0.304 µM)
- Log10 CFU/left Lung (M. tuberculosis (H37Rv); 20 mg/kg): 2.0 ± 0.41

Molecule: N2-(2-{[(E)-3-(4-chlorophenyl)-2-propenoyl]amino}-1,3-benzothiazol-6-yl)-5-nitro-2-furamide [Compound 6w]
- Cytotoxicity (AML-12 cell lines): >100 µg/mL
- Cytotoxicity (result in words) (AML-12 cell lines): no cytotoxicity

Molecule: N2-(2-{[(E)-3-phenyl-2-propenoyl]amino}-1,3-benzothiazol-6-yl}-5-nitro-2-furamide [Compound 6q]
- MIC (M. tuberculosis H37Rv [2]): 8.0 µg/mL
- Cytotoxicity (AML-12 cell lines): >100 µg/mL
- Cytotoxicity (result in words) (AML-12 cell lines): no cytotoxicity

Molecule: N3-(6-{[(5-nitro-2-furyl)carbonyl]amino}-1,3-benzothiazol-2-yl)nicotinamide [Compound 6o]
- MIC (M. tuberculosis H37Rv [2]): 4.0 µg/mL
- Cytotoxicity (AML-12 cell lines): >100 µg/mL
- Cytotoxicity (result in words) (AML-12 cell lines): no cytotoxicity
